Laboratory results published in paper PMC10413337 (RSC Advances, 2023).

Experiments:
breast MCF-7 = experiment: MTT cytotoxicity evaluation, MCF-7; settings: for IC50: Homo sapiens, MCF7, read-out: IC50 (μM ± SD) MCF-7
hepatic carcinoma HepG-2 = experiment: MTT cytotoxicity evaluation, HepG-2; type: cell-based; settings: Homo sapiens, HepG2, read-out: IC50 (μM ± SD) HepG-2
[1] = test system: normal lung fibroblast WI-38; experiment: MTT cytotoxicity evaluation, normal WI-38; type: cell-based; settings: Homo sapiens, WI-38, read-out: IC50 (μM ± SD) WI-38
colon carcinoma Caco2 = experiment: MTT cytotoxicity evaluation, Caco2; type: cell-based; settings: Homo sapiens, Caco-2, read-out: IC50 (μM ± SD) Caco2
HepG-2, Caco2, and MCF-7 = experiment: MTT cytotoxicity, statements over the three cancer cell lines; type: cell-based, human; settings: 9c versus 3

Structure (SMILES) | IC50 (breast MCF-7) [µM] | IC50 (hepatic carcinoma HepG-2) [µM] | IC50 [1] [µM] | IC50 (colon carcinoma Caco2) [µM] | improvement of the cytotoxic effect, times (breast MCF-7; thiosemicarbazone 3 versus acetyl derivative 1, MCF-7) [times] | drop in cytotoxicity, times (HepG-2, Caco2, and MCF-7) [times]
C=CCNC(=S)NN=C(C)c1nn(-c2ccc(S(N)(=O)=O)cc2)c(=N)s1 [Compound 9b, N-Allyl-2-(1-(5-imino-4-(4-sulfamoylphenyl)-4,5-di-hydro-1,3,4-thiadiazol-2-yl)ethylidene)hydrazine-1-carbothioamide] | 73 ± 3.3 | 149 ± 8.4 | 92.9 ± 4.8 | 74.8 ± 3.7 |  | 
CC(=NNC(N)=S)c1nn(-c2ccc(S(N)(=O)=O)cc2)c(=N)s1 [Compound 3, 2-(1-(5-imino-4-(4-sulfamoylphenyl)-4,5-dihydro-1,3,4-thiadiazol-2-yl)ethylidene)hydrazine-1-carbothioamide] | 6.38 ± 0.3 | 4.57 ± 0.3 | 44.4 ± 2.3 | 14.9 ± 0.7 | 2.5 | 
CNC(=S)NN=C(C)c1nn(-c2ccc(S(N)(=O)=O)cc2)c(=N)s1 [Compound 9a, 2-(1-(5-Imino-4-(4-sulfamoylphenyl)-4,5-dihydro-1,3,4-thiadiazol-2-yl)ethylidene)-N-methylhydrazine-1-carbothioamide] | 1.12 ± 0.1 | 0.53 ± 0.01 | 18.4 ± 1.7 | 1.01 ± 0.1 |  | 
C=CCn1c(-c2ccccc2)csc1=NN=C(C)c1nn(-c2ccc(S(N)(=O)=O)cc2)c(=N)s1 [Compound 12b, 4-(5-(1-((3-Allyl-4-phenylthiazol-2(3H)-ylidene)hydrazono)ethyl)-2-imino-1,3,4-thiadiazol-3(2H)-yl)benzenesulfonamide] | 15.1 ± 0.7 | 17.5 ± 1.5 | 63.5 ± 3.9 | 25.5 ± 1.3 |  | 
CC(=NNC(=S)Nc1ccc(Cl)cc1)c1nn(-c2ccc(S(N)(=O)=O)cc2)c(=N)s1 [Compound 9d, N-(4-Chlorophenyl)-2-(1-(5-imino-4-(4-sulfamoylphenyl)-4,5-dihydro-1,3,4-thiadiazol-2-yl)-ethylidene)hydrazine-1-carbothioamide] | 42.6 ± 1.8 | 153 ± 8.6 | 60.7 ± 3.1 | 98.7 ± 4.9 |  | 
CC(=NNC1=NC(=O)CS1)c1nn(-c2ccc(S(N)(=O)=O)cc2)c(=N)s1 [Compound 8, 4-(2-Imino-5-(1-(2-(4-oxo-4,5-dihydrothiazol-2-yl)hydrazineylidene)ethyl)-1,3,4-thiadiazol-3(2H)-yl)benzenesulfonamide] | 27.2 ± 1.2 | 11.3 ± 0.6 | 22.9 ± 1.2 | 5.31 ± 0.3 |  | 
CC(=NNc1nc(-c2ccccc2)cs1)c1nn(-c2ccc(S(N)(=O)=O)cc2)c(=N)s1 [Compound 4, 4-(2-Imino-5-(1-(2-(4-phenylthiazol-2-yl)hydrazineylidene)ethyl)-1,3,4-thiadiazol-3(2H)yl)benzenesulfonamide] | 3.52 ± 0.2 | 0.5 ± 0.04 | 21.4 ± 1.1 | 3.19 ± 0.2 |  | 
CC(=NN=c1scc(-c2ccccc2)n1-c1ccc(Cl)cc1)c1nn(-c2ccc(S(N)(=O)=O)cc2)c(=N)s1 [Compound 12d, 4-(5-(1-((3-(4-Chlorophenyl)-4-phenylthiazol-2(3H)-ylidene)hydrazono)ethyl)-2-imino-1,3,4-thiadiazol-3(2H)-yl)benzenesulfonamide] | 3.79 ± 0.2 | 4.26 ± 0.2 | 46.6 ± 2.4 | 1.06 ± 0.1 |  | 
CC(=O)c1nn(-c2ccc(S(N)(=O)=O)cc2)c(=N)s1 [Compound 1, 5-acetyl-3-N-(4-sulfamoylphenyl)-2-imino-1,3,4-thiadiazoline] | 14.9 ± 0.7 | 59.6 ± 3.4 | 91.5 ± 4.7 | 11.1 ± 0.6 |  | 
CC(=O)c1sc(NN=C(C)c2nn(-c3ccc(S(N)(=O)=O)cc3)c(=N)s2)nc1C [Compound 6, 4-(5-(1-(2-(5-Acetyl-4-methylthiazol-2-yl)hydrazineylidene)ethyl)-2-imino-1,3,4-thiadiazol-3(2H)-yl)benzenesulfonamide] | 21.2 ± 1.2 | 32.9 ± 1.9 | 110 ± 5.7 | 33.8 ± 1.7 |  | 
CCOC(=O)c1sc(NN=C(C)c2nn(-c3ccc(S(N)(=O)=O)cc3)c(=N)s2)nc1C [Compound 7, Ethyl-2-(2-(1-(5-imino-4-(4-sulfamoylphenyl)-4,5-dihydro-1,3,4-thiadiazol-2-yl)ethylidene)hydrazineyl)-4-methylthiazole-5-carboxylate] | 12.6 ± 0.6 | 19.6 ± 1.1 | 42.9 ± 2.2 | 7.39 ± 0.4 |  | 
CC(=NNC(=S)Nc1ccccc1)c1nn(-c2ccc(S(N)(=O)=O)cc2)c(=N)s1 [Compound 9c, 2-(1-(5-imino-4-(4-sulfamoylphenyl)-4,5-di-hydro-1,3,4-thiadiazol-2-yl)ethylidene)-N-phenylhydrazine-1-carbothioamide] | 21.1 ± 0.9 | 37.1 ± 2.1 | 28.5 ± 1.5 | 34.7 ± 1.7 |  | 10
